In patent publication US20190060249A1 (priority 2017, published 2019):

Experiments:
ALDH1A1 [1] = molecular target: T1, ALDH1A1 (Homo sapiens, UniProt P00352); assay: ALDH fluorescence-coupled enzymatic assay, all-trans-retinal substrate, ALDH1A1; type: biochemical
T1 sequence (P00352 1-501): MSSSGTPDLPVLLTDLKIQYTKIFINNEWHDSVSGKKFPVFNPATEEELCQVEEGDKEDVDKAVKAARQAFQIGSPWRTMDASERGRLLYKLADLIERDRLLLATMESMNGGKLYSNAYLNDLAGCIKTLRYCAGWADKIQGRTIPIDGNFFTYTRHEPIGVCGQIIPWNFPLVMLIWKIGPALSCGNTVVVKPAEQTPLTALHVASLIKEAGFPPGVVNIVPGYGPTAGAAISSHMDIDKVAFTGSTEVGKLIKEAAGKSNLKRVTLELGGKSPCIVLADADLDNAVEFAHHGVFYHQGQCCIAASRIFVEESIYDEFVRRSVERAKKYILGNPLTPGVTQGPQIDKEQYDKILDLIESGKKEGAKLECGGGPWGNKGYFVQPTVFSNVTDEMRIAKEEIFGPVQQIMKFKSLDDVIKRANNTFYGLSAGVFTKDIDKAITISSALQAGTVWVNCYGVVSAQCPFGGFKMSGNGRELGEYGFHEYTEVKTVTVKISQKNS
Experimental: (§1) Assay conditions were modified from the original enzyme assay protocol above using 50 mM NaPPi buffer (pH 7.4), 2.5 mM NAD^+, 10 mM acetaldehyde or all-trans-retinal substrate with the addition of 1 U/mL diaphorase and 0.1 mM resazurin for the secondary reaction. Measurements were collected in triplicate at 25° C.

ALDH3A1 [2] = molecular target: T2, ALDH3A1 (Homo sapiens, UniProt P30838); assay: ALDH enzymatic assay (spectrophotometric), recombinant ALDH3A1; type: biochemical
T2 sequence (P30838 1-453): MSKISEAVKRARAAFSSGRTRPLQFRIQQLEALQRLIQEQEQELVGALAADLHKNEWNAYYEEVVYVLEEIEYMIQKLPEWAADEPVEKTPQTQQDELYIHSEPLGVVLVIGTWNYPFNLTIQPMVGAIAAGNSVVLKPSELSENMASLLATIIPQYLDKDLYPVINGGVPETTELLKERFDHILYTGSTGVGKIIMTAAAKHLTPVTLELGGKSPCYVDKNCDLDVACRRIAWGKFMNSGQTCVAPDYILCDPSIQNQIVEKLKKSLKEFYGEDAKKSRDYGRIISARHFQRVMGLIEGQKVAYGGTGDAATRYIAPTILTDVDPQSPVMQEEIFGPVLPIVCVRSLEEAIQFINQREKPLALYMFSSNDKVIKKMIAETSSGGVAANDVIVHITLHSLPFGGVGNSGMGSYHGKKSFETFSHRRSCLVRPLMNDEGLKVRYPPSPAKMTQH
Text: To determine if ALDH3A1 activation is sufficient to protect salivary glands from radiation-induced dysfunction, a library of 135 traditional Chinese medicine extracts donated from Sun Ten Pharmaceutical Co., Taiwan, was screened using a spectroscopic enzyme activity assay and purified recombinant ALDH3A1. […] We then conducted high performance liquid chromatography (HPLC) fractionation of the extracts and nuclear magnetic resonance (NMR) characterization of the fractions. Based on the NMR fingerprint, we identified known constituents of similar fingerprints and purchased the commercially available compounds to test using the enzyme activity assay.
(§2) ALDH enzymatic assay: ALDH1A1, ALDH1A2, 2, 3A1, 3A2, 4A1, 5A1, 7A1 were measured as previously described using 5 μg/ml of recombinant protein (Chen, C. H., Cruz, L. A., and Mochly-Rosen, D. (2015) Pharmacological recruitment of aldehyde dehydrogenase 3A1 (ALDH3A1) to assist ALDH2 in acetaldehyde and ethanol metabolism in vivo. Proceedings of the National Academy of Sciences of the United States of America 112, 3074-3079). […] Assays were conducted in 50 mM NaPPi buffer (pH 7.4) in the presence of 2.5 mM NAD^+ and 10 mM substrate and measured in triplicate at 25° C. Dose response curve fits and EC50's were calculated using GraphPad Prism 7 software.
Activity measured in presence of compound concentrations from 6 nM to 400 μM.

ALDH3A1 [3] = molecular target: T2, ALDH3A1; assay: ALDH fluorescence-coupled enzymatic assay, all-trans-retinal substrate, ALDH3A1; type: biochemical
Experimental: as §1

[4] = tested on: salispheres of C57BL/6 mice; assay: Organoid formation assay; type: cell-based, mouse; settings: 25 μM Alda-341, 7 d
Experimental: Organoids, defined as having greater than or equal to 5 buds, were blindly counted and quantified as a ratio of organoid number to total number of organoids and undifferentiated spheres. 4 replicates per group. All error bars represent SEM. *=p<0.05; **=p<0.01; ***=p<0.001 (Student's t-test).
Organoid formation assay: Spheres were dissociated in 1 mg/mL dispase (BD Biosciences) for 20 minutes and resuspended in 80% collagen, 10% 10× F12, and 10% Solution C (2.2 g NaHCO3 in 100 mL of 0.05 N NaOH and 200 mM HEPES) and combined with 60% matrigel. 200 spheres per well were plated in a Millicell cell culture insert (EMD Millipore) with sphere media. Organoids defined as having greater than or equal to 5 buds formed after 2-3 d in culture and were grown for 7 d before imaging with a BZ-X710 Keyence microscope using the z-stack function. Images were stitched together into a single image and the number of differentiated organoids and undifferentiated spheres were blindly counted and quantified as a ratio of organoid number to total number of organoids and undifferentiated spheres. Experiments were repeated at least three independent times.

[5] = tested on: intact SMG from CD-1 E13.5 embryos; assay: DarkZone dye aldehyde assay in intact E13.5 embryonic SMG; type: cell-based, mouse; settings: 25 μM Alda-341 for 24 h, 4 Gy, 3 h after radiation
Experimental: DarkZone dye aldehyde assay in intact E13.5 embryonic SMG: E13.5 embryonic whole SMG were manually dissected and cultured in DMEM/F12 with 50 ug/mL transferrin and 50 ug/mL Vitamin C for 24 h. Glands were irradiated with 4 or 8 Gy and incubated with 20 uM DarkZone fluorescein aldehyde dye and 10 mM 2,4-Dimethoxyaniline catalyst (TCI America) for 1 h (Yuen, L. H., Saxena, N. S., Park, H. S., Weinberg, K., and Kool, E. T. (2016) Dark Hydrazone Fluorescence Labeling Agents Enable Imaging of Cellular Aldehydic Load. ACS chemical biology 11, 2312-2319). Glands were imaged 3 h after radiation using a Keyence BZ-X710 microscope GFP filter at 10× magnification. Average fluorescence intensity was quantified using Image J (NIH).
After 24 h, the glands were irradiated with 4 Gy and incubated SMG with DarkZone dye to measure intracellular aldehydes. After 3 h, the aldehydic load in the irradiated vehicle control-treated SMG was more than 4-fold greater than the non-irradiated vehicle control-treated SMG.

ALDH1A1 [6] = molecular target: T1, ALDH1A1; assay: ALDH enzymatic assay, recombinant ALDH1A1; type: biochemical; settings: 5 μg/ml recombinant enzyme, 10 mM acetaldehyde, 20 μM Alda-341
Experimental: as §2

`C=C(C)[C@H]1CC=C(C)CC1` [Alda-341, D-limonene] was tested, and the “catalytic activity of all trans-retinal in ALDH1A1” value (ALDH1A1 [1]) was “did not increase”, the “substrate specificity of increase in ALDH3A1 catalytic activity” value (ALDH3A1 [2]; 10 mM acetaldehyde, propionaldehyde, benzaldehyde, cinnamaldehyde, decanal, heptaldehyde or 200 μM 4-hydroxynonenal, 100 μM compound) was “only increase the catalytic activity of ALDH3A1 towards small aldehydes like acetaldehyde and propionaldehyde but not aromatic or long-chain aldehydes” and the Amax (ALDH3A1 [2]; normalized to baseline activity, GraphPad Prism curve fit) was roughly 4.6. For the same molecule, the EC50 (ALDH3A1 [2]; recombinant ALDH3A1, spectrophotometric enzyme activity assay, concentrations 6 nM to 400 μM) was roughly 14 µM, the “catalytic activity of all trans-retinal in ALDH3A1” value (ALDH3A1 [3]) was “did not increase” and the “more organoids than vehicle-treated control” value [4] was 25%. For the same molecule, the “aldehydic load after radiation” value [5] was “reduced the aldehydic load to almost non-irradiated levels” and the “catalytic activity of ALDH1A1” value (ALDH1A1 [6]) was “did not increase”.
